Laboratory results as given in ChEMBL document CHEMBL1201862, “PubChem BioAssay data set” (2004).
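Five concentrations, 48 hours, 96-well plates. GI50 = concentration required for 50% inhibition of growth.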 Active and inactive are the calls of the source. Rule as the data show it: active = GI50 up to about 1.1 µM and inactive = higher.

Tests used:
Assay in all cases: growth of human tumour cells (NCI), 48 h
[1] = test system: HOP-62
[2] = test system: SK-OV-3
[3] = test system: CCRF-CEM
[4] = test system: NCI/ADR-RES
[5] = test system: EKVX
[6] = test system: IGROV-1
[7] = test system: RXF 393
[8] = test system: SF-539
[9] = test system: SR
[10] = test system: TK-10
[11] = test system: HCT-116
[12] = test system: OVCAR-5
[13] = test system: SF-268
[14] = test system: Hs-578T
[15] = test system: SN12C
[16] = test system: COLO 205
[17] = test system: M14
[18] = test system: T47D
[19] = test system: MDA-MB-231
[20] = test system: LOX IMVI

Row | SMILES | GI50 [1] | GI50 [2] | GI50 [3] | GI50 [4] | GI50 [5] | GI50 [6] | GI50 [7] | GI50 [8] | GI50 [9] | GI50 [10] | GI50 [11] | GI50 [12] | GI50 [13] | GI50 [14] | GI50 [15] | GI50 [16] | GI50 [17] | GI50 [18] | GI50 [19] | GI50 [20]
1 | CC(C)(Oc1ccc(-c2cccc3ccccc23)cc1)C(=O)O | > 100 µM (inactive) | > 100 µM (inactive) | 6.22 µM (inactive) | > 100 µM (inactive) | > 100 µM (inactive) | > 100 µM (inactive) | > 100 µM (inactive) | > 100 µM (inactive) | > 100 µM (inactive) | > 100 µM (inactive) | > 100 µM (inactive) | > 100 µM (inactive) | > 100 µM (inactive) | > 100 µM (inactive) | 85.1 µM (inactive) | 71 µM (inactive) | > 100 µM (inactive) | 80.2 µM (inactive) | > 100 µM (inactive) | 
2 | Cc1cc2c(cc1Cl)Sc1nnc(Nc3ccccc3)n1S2(=O)=O | 3.64 µM (inactive) |  |  | 6.22 µM (inactive) | 11.7 µM (inactive) | 10 µM (inactive) | 5.26 µM (inactive) | 2.39 µM (inactive) | 2.59 µM (inactive) | 17.8 µM (inactive) | 9.64 µM (inactive) | 31.9 µM (inactive) | 2.32 µM (inactive) | 3.15 µM (inactive) |  |  | 14.1 µM (inactive) | 7.78 µM (inactive) | 11.7 µM (inactive) | 3.85 µM (inactive)
3 | CCOC(=O)C(=O)C(/C(=N/N(C)C)C(=O)Nc1ccc(C)cc1C)c1nc2ccccc2nc1O (stereo not drawn) | > 100 µM (inactive) | > 100 µM (inactive) | > 100 µM (inactive) | > 100 µM (inactive) | 49.1 µM (inactive) | > 100 µM (inactive) | > 100 µM (inactive) | > 100 µM (inactive) | > 100 µM (inactive) | > 100 µM (inactive) | > 100 µM (inactive) | > 100 µM (inactive) | > 100 µM (inactive) | > 100 µM (inactive) | > 100 µM (inactive) |  | > 100 µM (inactive) | > 100 µM (inactive) | > 100 µM (inactive) | > 100 µM (inactive)
4 | CCOC(=O)c1nc2cc(F)c(N3CCOCC3)cc2[nH]c1=O | > 100 µM (inactive) | > 100 µM (inactive) | 96.4 µM (inactive) | > 100 µM (inactive) | 13.9 µM (inactive) | 80.9 µM (inactive) | > 100 µM (inactive) | > 100 µM (inactive) | 36.3 µM (inactive) | > 100 µM (inactive) | > 100 µM (inactive) | > 100 µM (inactive) | > 100 µM (inactive) | 56.1 µM (inactive) | > 100 µM (inactive) | > 100 µM (inactive) | > 100 µM (inactive) | > 100 µM (inactive) | > 100 µM (inactive) | 
5 | Cc1cccc2c1CC(C1OC(=O)c3c(C)cccc31)C2=O (stereo not drawn) | > 100 µM (inactive) | > 100 µM (inactive) | > 100 µM (inactive) | > 100 µM (inactive) | > 100 µM (inactive) | > 100 µM (inactive) | > 100 µM (inactive) | > 100 µM (inactive) | > 100 µM (inactive) | > 100 µM (inactive) | > 100 µM (inactive) | > 100 µM (inactive) | > 100 µM (inactive) | > 100 µM (inactive) | > 100 µM (inactive) | > 100 µM (inactive) | > 100 µM (inactive) | > 100 µM (inactive) | > 100 µM (inactive) | 70.6 µM (inactive)
6 | COc1ccccc1/C=C1\S/C(=N/Nc2nc(C)c(C(C)=O)s2)NC1=O | 81.1 µM (inactive) | 74.1 µM (inactive) | 43.4 µM (inactive) | 43.8 µM (inactive) |  |  | 69 µM (inactive) | 44.1 µM (inactive) | 31 µM (inactive) | 40.6 µM (inactive) | 43.3 µM (inactive) | 83 µM (inactive) | 22.8 µM (inactive) | 25.4 µM (inactive) | 65.9 µM (inactive) | 22.9 µM (inactive) | 74 µM (inactive) | 25.6 µM (inactive) | 22.8 µM (inactive) | 43.2 µM (inactive)
7 | FC1C2=C(SC1(F)F)C1CCC2C1 (stereo not drawn) |  | > 100 µM (inactive) |  | > 100 µM (inactive) | > 100 µM (inactive) | > 100 µM (inactive) | > 100 µM (inactive) |  | > 100 µM (inactive) | > 100 µM (inactive) | > 100 µM (inactive) | > 100 µM (inactive) |  | > 100 µM (inactive) |  | > 100 µM (inactive) | > 100 µM (inactive) | > 100 µM (inactive) | > 100 µM (inactive) | > 100 µM (inactive)
8 | COc1cc(/C=C2\C(=O)N(c3ccccc3)C(c3ccccc3)S2(=O)=O)cc(OC)c1OC (stereo not drawn) | 70.6 µM (inactive) | 62.7 µM (inactive) | 10.6 µM (inactive) | 28.4 µM (inactive) | 24.2 µM (inactive) |  | 17.1 µM (inactive) | 45.1 µM (inactive) | 24.5 µM (inactive) | 65 µM (inactive) | 21.1 µM (inactive) | > 100 µM (inactive) | > 100 µM (inactive) | 70.3 µM (inactive) | 39.4 µM (inactive) | 23.3 µM (inactive) | 35.2 µM (inactive) | 36.1 µM (inactive) | 97.5 µM (inactive) | 31.4 µM (inactive)
9 | O=C1OC(C2Cc3cc4c(cc3C2=O)CCC4)c2ccccc21 (stereo not drawn) | 65 µM (inactive) | 21.7 µM (inactive) | 25.6 µM (inactive) | 63.4 µM (inactive) | 49.5 µM (inactive) | 45.5 µM (inactive) |  | 27.9 µM (inactive) | 35.7 µM (inactive) | > 100 µM (inactive) | 36.6 µM (inactive) | > 100 µM (inactive) | 45.7 µM (inactive) | 22.5 µM (inactive) | 63 µM (inactive) | 33.9 µM (inactive) | > 100 µM (inactive) | 71.3 µM (inactive) | 36.6 µM (inactive) | 37 µM (inactive)
10 | CC(=O)Nc1ccc2c(C)c3c(nc2n1)[nH]c1ccccc13 | 32.2 µM (inactive) |  | 30.6 µM (inactive) | 22.1 µM (inactive) | 23.1 µM (inactive) | 22.2 µM (inactive) | 33.6 µM (inactive) | 57.3 µM (inactive) | 17.6 µM (inactive) | 55.5 µM (inactive) | 21.6 µM (inactive) | 51.4 µM (inactive) | 33 µM (inactive) | 19.8 µM (inactive) | 30.5 µM (inactive) | 17.2 µM (inactive) | 25.4 µM (inactive) | 13.3 µM (inactive) | 35.1 µM (inactive) | 16.4 µM (inactive)
11 | c1ccc(C2=NNC3c4ccccc4-c4ccccc4N3C2)cc1 (stereo not drawn) | 46.1 µM (inactive) | 46.6 µM (inactive) |  | 31.8 µM (inactive) | 35.5 µM (inactive) | 31.6 µM (inactive) | 40 µM (inactive) | 22.4 µM (inactive) | 21.1 µM (inactive) | 33.7 µM (inactive) | 34 µM (inactive) | 99.8 µM (inactive) | 44.9 µM (inactive) | 34.8 µM (inactive) | 35.3 µM (inactive) | 18.4 µM (inactive) | 29.2 µM (inactive) | 23.5 µM (inactive) | 26 µM (inactive) | 28.6 µM (inactive)
12 | c1ccc2c(CC3NCCN3)cccc2c1 | > 100 µM (inactive) | > 100 µM (inactive) | > 100 µM (inactive) | > 100 µM (inactive) | > 100 µM (inactive) | > 100 µM (inactive) | > 100 µM (inactive) | > 100 µM (inactive) | > 100 µM (inactive) | > 100 µM (inactive) | > 100 µM (inactive) | > 100 µM (inactive) | > 100 µM (inactive) | > 100 µM (inactive) | > 100 µM (inactive) | > 100 µM (inactive) | > 100 µM (inactive) | > 100 µM (inactive) | > 100 µM (inactive) | > 100 µM (inactive)
13 | CC(C)C[C@H](NC(=O)CCc1ccccc1)B(O)O | 16.8 µM (inactive) |  | 2.33 µM (inactive) | 22.7 µM (inactive) | 42.1 µM (inactive) | 23.2 µM (inactive) | 5.66 µM (inactive) | 4.54 µM (inactive) | 2.72 µM (inactive) | 8.97 µM (inactive) | 5.87 µM (inactive) | 13.6 µM (inactive) | 10.1 µM (inactive) | 5.78 µM (inactive) | 16.8 µM (inactive) | 12.7 µM (inactive) | 12.1 µM (inactive) | 18.7 µM (inactive) | 17.7 µM (inactive) | 4.63 µM (inactive)
14 | COc1cccc(CCn2c(N)c(-c3cc(Cl)cc(Cl)c3)c3ccc([N+](=O)[O-])cc3c2=O)c1 | 5.21 µM (inactive) | 8.89 µM (inactive) | 0.787 µM (active) | 3.27 µM (inactive) | 4.69 µM (inactive) | 3.33 µM (inactive) |  | 77.3 µM (inactive) | 0.897 µM (active) | 4.28 µM (inactive) | 2.84 µM (inactive) | 18.1 µM (inactive) | 5.86 µM (inactive) | 3.19 µM (inactive) | 5 µM (inactive) | 2.03 µM (inactive) | 3.95 µM (inactive) | 2.78 µM (inactive) | 4.68 µM (inactive) | 3.61 µM (inactive)
15 | NS(=O)(=O)c1nnc(NC(=O)c2ccccc2)s1 | > 100 µM (inactive) | > 100 µM (inactive) |  | > 100 µM (inactive) | > 100 µM (inactive) |  | > 100 µM (inactive) | > 100 µM (inactive) | > 100 µM (inactive) | > 100 µM (inactive) | > 100 µM (inactive) | > 100 µM (inactive) | > 100 µM (inactive) | > 100 µM (inactive) | > 100 µM (inactive) | > 100 µM (inactive) | > 100 µM (inactive) | > 100 µM (inactive) | > 100 µM (inactive) | > 100 µM (inactive)
